Assay: Dissolution test (paddle method, Japanese Pharmacopoeia Sixteenth Edition), first fluid for dissolution test
Assay type: physicochemical
Details: for dissolution rate in the first fluid for dissolution test: 30 minutes after initiation, paddle 50 rpm, 37° C., 900 mL, hydrochloride
Method: In order to evaluate each of the compositions (tablets) in Example 1 and Comparative Example 1, a dissolution test was performed in accordance with dissolution apparatus 2 (paddle method) in the Japanese Pharmacopoeia Sixteenth Edition. Detailed conditions of the dissolution test are as follows.
In order to evaluate each of the compositions (tablets) in Example 2 and Comparative Example 2, a dissolution test was performed in the same manner as in Test Example 1.

[1] = coated tablets of Example 1 / Comparative Example 1 (direct compression), FIG. 5

dissolution rate in the first fluid for dissolution test [1] | dissolution rate in the first fluid for dissolution test (coated tablets of Example 2 / Comparative Example 2 (wet granulation method), FIG. 6) | dissolution rate in the first fluid for dissolution test (coated tablets of Example 2 / Comparative Example 2 (wet granulation method), FIG. 6, listed as B-form crystal) [%] | dissolution rate in the first fluid for dissolution test compared with the tablet containing Compound 1 (A-form crystal) (tablets of Example 1 vs Comparative Example 1, FIG. 5) | SMILES
at most 25% | at most 30% | – | – | COc1c(N2C[C@H](CNC3CC3)[C@H](F)C2)c(F)cc2c(=O)c(C(=O)O)cn(CCF)c12.Cl [Compound 1, 7-[(3S,4S)-3-((cyclopropylamino)methyl)-4-fluoropyrrolidine-1-yl]-6-fluoro-1-(2-fluoroethyl)-8-methoxy-4-oxo-1,4-dihydroquinoline-3-carboxylic acid hydrochloride]
≥ 80% | – | ≥ 80 | higher | COc1c(N2C[C@H](CNC3CC3)[C@H](F)C2)c(F)cc2c(=O)c(C(=O)O)cn(CCF)c12.Cl [Compound 2, 7-[(3S,4S)-3-{(cyclopropylamino)methyl}-4-fluoropyrrolidine-1-yl]-6-fluoro-1-(2-fluoroethyl)-8-methoxy-4-oxo-1,4-dihydroquinoline-3-carboxylic acid hydrochloride]
